# Source: publication PMC7031696 (Cell chemical biology, 2019)
# Like-named read-outs stand apart in the source and are kept apart here.
# Legend:
# [1] = system: asynchronous 3D7-A10 parasite cultures; test: Standard 72-h exposure asexual blood stage susceptibility assay (IC50^72h); type: cell-based, Plasmodium falciparum; conditions: Plasmodium falciparum, 3D7, 72 h, read-out: Overall (72hr assay) Mean IC50 (IC50^72h)
# [2] = system: Plasmodium falciparum 3D7-A10 parasites; test: Stage specificity assay (8-h exposure of synchronized stages, IC50^8h); type: cell-based; conditions: Plasmodium falciparum
# [3] = system: 3D7-MR4 trophozoite parasite-infected RBCs; conditions: 10 × IC50^72h; ref Allman et al., 2016; cited from earlier work
# [4] = system: 3D7-MR4 trophozoite parasite-infected RBCs; test: Metabolomic profiling (hydrophilic metabolite changes, UHPLC-MS); type: cell-based, Plasmodium falciparum
compound,measurement,setting,value
"CCN(CC)CCCC(C)Nc1ccnc2cc(Cl)ccc12 (centres unmarked) [Chloroquine, reference compound]",IC50,[1],5.9 nM
same,IC50,"[2]; 3D7, read-out: Early rings Mean IC50 (IC50^8h)",17.8 nM
same,IC50,"[2]; 3D7, read-out: Early trophozoites Mean IC50 (IC50^8h)",17.4 nM
same,IC50,"[2]; 3D7, read-out: IC50^8h values",< 300 nM
same,IC50,"[2]; 3D7, read-out: Late rings Mean IC50 (IC50^8h)",18.6 nM
same,IC50,"[2]; 3D7, read-out: Late trophozoites Mean IC50 (IC50^8h)",30.1 nM
same,IC50,"[2]; 3D7, read-out: Schizonts Mean IC50 (IC50^8h)",60.3 nM
same,"increased levels of dAMP, dUTP, cytidine, xanthosine, and N-acetyl-lysine",[3],> 2 fold
same,peptide levels (hemoglobin catabolism signature),[3],more modest decrease in peptide levels
COc1ccc(C2c3ccc4ccccc4c3Oc3ncn(CCCN(C)C)c(=N)c32)cc1 (centres unmarked) [MMV667491],IC50,[1],243 nM
same,IC50,"[2]; 3D7, read-out: Early rings Mean IC50 (IC50^8h), 8-h exposure 0–8 hr, 3D7-A10, survival at 60 h",2260 nM
same,IC50,"[2]; 3D7, read-out: Early trophozoites Mean IC50 (IC50^8h), 8-h exposure 16–24 hr, 3D7-A10, survival at 60 h",521 nM
same,IC50,"[2]; 3D7, read-out: Late rings Mean IC50 (IC50^8h), 8-h exposure 8–16 hr, 3D7-A10, survival at 60 h",1270 nM
same,IC50,"[2]; 3D7, read-out: Late trophozoites Mean IC50 (IC50^8h), 8-h exposure 24–32 hr, 3D7-A10, survival at 60 h",731 nM
same,IC50,"[2]; 3D7, read-out: Schizonts Mean IC50 (IC50^8h), 8-h exposure 32–40 hr, 3D7-A10, survival at 60 h",842 nM
same,peptide levels (hemoglobin catabolism signature),"[4]; 10 × IC50^72h, 2.5 hr, trophozoites",decreased peptide levels
same,Log2(fold changes) 3-phosphoglycerate,"[4]; metabolite 3-phosphoglycerate, log2 fold change",0.2589
same,Log2(fold changes) 4-Pyridoxic acid,"[4]; metabolite 4-Pyridoxic acid, log2 fold change",0.1545
same,Log2(fold changes) 4-aminobutyrate,"[4]; metabolite 4-aminobutyrate, log2 fold change",-0.0143
same,Log2(fold changes) 4-phosphopantetheine,"[4]; metabolite 4-phosphopantetheine, log2 fold change",0.0000
same,Log2(fold changes) 4-phosphopantothenate,"[4]; metabolite 4-phosphopantothenate, log2 fold change",-0.5959
same,Log2(fold changes) 5-aminopentanoic acid,"[4]; metabolite 5-aminopentanoic acid, log2 fold change",0.0000
same,Log2(fold changes) 5-methyl-THF,"[4]; metabolite 5-methyl-THF, log2 fold change",0.0000
same,Log2(fold changes) 5-phosphoribosyl-1-pyrophosphate,"[4]; metabolite 5-phosphoribosyl-1-pyrophosphate, log2 fold change",0.0000
same,Log2(fold changes) 6-phospho-D-gluconate,"[4]; metabolite 6-phospho-D-gluconate, log2 fold change",-0.3071
same,Log2(fold change) HVDD,[4]; metabolite HVDD,-3.1004
same,Log2(fold change) Hydroxyisocaproic acid,[4]; metabolite Hydroxyisocaproic acid,0.0000
same,Log2(fold change) IDP,[4]; metabolite IDP,0.0000
same,Log2(fold change) IMP,[4]; metabolite IMP,-0.4029
same,Log2(fold change) Inositol,[4]; metabolite Inositol,0.0000
same,Log2(fold change) Isopentyl-PP,[4]; metabolite Isopentyl-PP,-0.4741
same,Log2(fold change) L-arginino-succinate,[4]; metabolite L-arginino-succinate,1.0249
same,Log2(fold change) LD,[4]; metabolite LD,0.5039
same,Log2(fold change) Myristoyl/tetradecanoyl-CoA,[4]; metabolite Myristoyl/tetradecanoyl-CoA,0.0000
same,Log2(fold change) N-Acetyl-L-alanine,[4]; metabolite N-Acetyl-L-alanine,-0.5066
same,Log2(fold change) N-acetyl-L-ornithine,[4]; metabolite N-acetyl-L-ornithine,-0.0359
same,Log2(fold change) N-acetyl-glucosamine-1/6-phosphate,[4]; metabolite N-acetyl-glucosamine-1/6-phosphate,-0.2210
same,Log2(fold change) N-acetyl-glutamate,[4]; metabolite N-acetyl-glutamate,-0.3035
same,Log2(fold change) N-acetyl-glutamine,[4]; metabolite N-acetyl-glutamine,2.2691
same,Log2(fold change) N-carbamoyl-L-aspartate,[4]; metabolite N-carbamoyl-L-aspartate,-0.9439
same,Log2(fold change) NAD+,[4]; metabolite NAD+,-0.1377
same,Log2(fold change) NADH,[4]; metabolite NADH,0.2776
same,Log2(fold change) NADP+,[4]; metabolite NADP+,0.1452
same,Log2(fold change) NADPH,[4]; metabolite NADPH,0.1884
same,Log2(fold change) O-acetyl-L-serine,[4]; metabolite O-acetyl-L-serine,-0.0049
same,Log2(fold change) Octoluse 8/1P,[4]; metabolite Octoluse 8/1P,0.3908
same,Log2(fold change) Octoluse Bisphosphate,[4]; metabolite Octoluse Bisphosphate,1.4853
same,Log2(fold change) PD,[4]; metabolite PD,-2.5358
same,Log2(fold change) PE,[4]; metabolite PE,-0.3826
same,Log2(fold change) PEE,[4]; metabolite PEE,-0.0417
same,Log2(fold change) PEEK,[4]; metabolite PEEK,0.3987
same,Log2(fold change) PVNF,[4]; metabolite PVNF,-3.7257
same,Log2(fold change) Pyroglutamic acid,[4]; metabolite Pyroglutamic acid,-0.2992
same,Log2(fold change) Pyrophosphate,[4]; metabolite Pyrophosphate,0.0000
same,Log2(fold change) Ribose-5-phosphate,[4]; metabolite Ribose-5-phosphate,-0.2620
same,Log2(fold change) S-adenosyl-L-homocysteine,[4]; metabolite S-adenosyl-L-homocysteine,0.0103
same,Log2(fold change) S-adenosyl-L-methioninamine,[4]; metabolite S-adenosyl-L-methioninamine,-2.2715
same,Log2(fold change) S-adenosyl-L-methionine,[4]; metabolite S-adenosyl-L-methionine,0.0000
same,Log2(fold change) S-methyl-5'-thioadenosine,[4]; metabolite S-methyl-5'-thioadenosine,1.0471
same,Log2(fold change) SD,[4]; metabolite SD,-1.2290
same,Log2(fold change) SDL,[4]; metabolite SDL,0.0000
same,Log2(fold change) SID,[4]; metabolite SID,-0.4398
same,Log2(fold change) Sedoheptulose bisphosphate,[4]; metabolite Sedoheptulose bisphosphate,1.3696
same,Log2(fold change) Thiamine pyrophosphate,[4]; metabolite Thiamine pyrophosphate,-0.0845
same,Log2(fold changes) UDP-D-glucose,"[4]; metabolite UDP-D-glucose, log2 fold change",0.2535
same,Log2(fold changes) UDP-D-glucuronate,"[4]; metabolite UDP-D-glucuronate, log2 fold change",0.0929
same,Log2(fold changes) UDP-N-acetyl-glucosamine,"[4]; metabolite UDP-N-acetyl-glucosamine, log2 fold change",-0.0110
same,Log2(fold changes) UDP,"[4]; metabolite UDP, log2 fold change",-0.5582
same,Log2(fold changes) UMP,"[4]; metabolite UMP, log2 fold change",-1.0091
same,Log2(fold changes) UTP,"[4]; metabolite UTP, log2 fold change",0.0000
same,Log2(fold change) hydroxyphenylpyruvate,[4]; metabolite hydroxyphenylpyruvate,0.0000
same,Log2(fold change) hydroxyproline/Aminolevulinate,[4]; metabolite hydroxyproline/Aminolevulinate,-0.0313
same,Log2(fold change) hypoxanthine,[4]; metabolite hypoxanthine,0.1226
same,Log2(fold change) indole,[4]; metabolite indole,0.0000
same,Log2(fold change) inosine,[4]; metabolite inosine,0.0977
same,Log2(fold change) isoleucine,[4]; metabolite isoleucine,0.0000
same,Log2(fold change) lactate,[4]; metabolite lactate,-0.2958
same,Log2(fold change) leucine,[4]; metabolite leucine,0.0000
same,Log2(fold change) lysine,[4]; metabolite lysine,-0.5255
same,Log2(fold change) malate,[4]; metabolite malate,-0.2587
same,Log2(fold change) maleic acid,[4]; metabolite maleic acid,-0.3091
same,Log2(fold change) methionine,[4]; metabolite methionine,0.3155
same,Log2(fold change) myo-inositol,[4]; metabolite myo-inositol,-0.2765
same,Log2(fold change) nicotinamide mononucleotide,[4]; metabolite nicotinamide mononucleotide,-0.3204
same,Log2(fold change) nicotinate,[4]; metabolite nicotinate,-0.1938
same,Log2(fold change) ornithine,[4]; metabolite ornithine,0.1211
same,Log2(fold change) orotate,[4]; metabolite orotate,-0.0965
same,Log2(fold change) orotidine-5'-phosphate,[4]; metabolite orotidine-5'-phosphate,-2.6245
same,Log2(fold change) oxaloacetate,[4]; metabolite oxaloacetate,-0.0776
same,Log2(fold change) p-aminobenzoate,[4]; metabolite p-aminobenzoate,0.0000
same,Log2(fold change) p-hydroxybenzoate,[4]; metabolite p-hydroxybenzoate,0.0000
same,Log2(fold change) pantothenate,[4]; metabolite pantothenate,0.1007
same,Log2(fold change) phenylalanine,[4]; metabolite phenylalanine,-0.2555
same,Log2(fold change) phenylpyruvate,[4]; metabolite phenylpyruvate,0.0000
same,Log2(fold change) phosphoenolpyruvate,[4]; metabolite phosphoenolpyruvate,0.7161
same,Log2(fold change) prephenate,[4]; metabolite prephenate,-0.9019
same,Log2(fold change) proline,[4]; metabolite proline,-0.2246
same,Log2(fold change) pyridoxine,[4]; metabolite pyridoxine,-0.1003
same,Log2(fold change) pyruvate,[4]; metabolite pyruvate,-0.3220
same,Log2(fold change) riboflavin,[4]; metabolite riboflavin,0.6538
same,Log2(fold change) ribose,[4]; metabolite ribose,0.3285
same,Log2(fold change) ribose-phosphate,[4]; metabolite ribose-phosphate,-0.4272
same,Log2(fold change) ribulose-5-phosphate,[4]; metabolite ribulose-5-phosphate,-0.4317
same,Log2(fold change) serine,[4]; metabolite serine,0.1307
same,Log2(fold change) sn-glycerol-3-phosphate,[4]; metabolite sn-glycerol-3-phosphate,0.0813
same,Log2(fold change) succinate/Methylmalonic acid,[4]; metabolite succinate/Methylmalonic acid,-0.0916
same,Log2(fold change) succinyl-CoA/methylmalonyl-CoA,[4]; metabolite succinyl-CoA/methylmalonyl-CoA,0.0000
same,Log2(fold change) taurine,[4]; metabolite taurine,0.1233
same,Log2(fold change) thiamine,[4]; metabolite thiamine,-0.6378
same,Log2(fold change) threonine/homoserine,[4]; metabolite threonine/homoserine,-0.0132
same,Log2(fold change) thymidine,[4]; metabolite thymidine,0.0000
same,Log2(fold changes) thymine,"[4]; metabolite thymine, log2 fold change",0.0000
same,Log2(fold changes) trehalose-6-Phosphate,"[4]; metabolite trehalose-6-Phosphate, log2 fold change",0.0000
same,Log2(fold changes) tryptophan,"[4]; metabolite tryptophan, log2 fold change",-0.6838
same,Log2(fold changes) tyrosine,"[4]; metabolite tyrosine, log2 fold change",0.0515
same,Log2(fold changes) uridine,"[4]; metabolite uridine, log2 fold change",0.0000
